{"source": "patent US20130005810A1", "about": "“ORGANIC UNCOUPLING AGENTS” (RHODIA OPERATIONS, priority 2009, published 2013)", "system": "bacterial strain Shinella granuli", "assay": "Oxitop respirometric screening test (oxygen overconsumption as signature of uncoupling, 7 days)", "format": "cell-based", "conditions": "for uncoupling percentage relative to the control: Shinella granuli, 7 days", "excerpt": "In order to evaluate the reduction in sludge production by a chemical uncoupling agent in screening, the respirometric technique of Oxitop® cylinders is used. Bacterial strains known and representative of activated sludge (since they are isolated in aeration tanks) are inoculated into a culture medium in the presence of a certain concentration of the uncoupling agent over a period of 7 days. By comparing the respiration of treated inocula comparatively with controls (untreated inocula), it is possible to measure oxygen overconsumption, a physiological signature of the uncoupling effect on bacteria.\nThe method and the apparatus used are those described in Example 3 of WO 2004/113236 cited as a reference.\nThe results obtained in a screening test on the bacterial strain Shinella granuli, are gathered in Table 1 below. They are expressed as an uncoupling percentage relative to the control (not comprising any uncoupling agent). THPS (tetrakis(hydromethyl)phosphonium sulfate) produces uncoupling effects in oxitop® respirometry tests of 16±8% for a rated concentration of 3 ppm, the 95% confidence interval of THPS in terms of uncoupling factor being, […] from results obtained in 26 Oxitop® tests.", "data": [{"smiles": "COc1cc(C=O)ccc1O", "note": "[Vanillin, vanillin]", "values": [{"measurement": "uncoupling percentage relative to the control", "setting": "0.1 ppm uncoupling agent", "value": 5, "unit": "%"}, {"measurement": "uncoupling percentage relative to the control", "setting": "0.5 ppm uncoupling agent", "value": 18, "unit": "%"}, {"measurement": "uncoupling percentage relative to the control", "setting": "1 ppm uncoupling agent", "value": 14, "unit": "%"}, {"measurement": "uncoupling percentage relative to the control", "setting": "2 ppm uncoupling agent", "value": "18%-25%"}, {"measurement": "uncoupling percentage relative to the control", "setting": "3 ppm uncoupling agent", "value": "15%-22%"}, {"measurement": "uncoupling percentage relative to the control", "setting": "8 ppm uncoupling agent", "value": "21%-21%"}, {"measurement": "uncoupling percentage relative to the control", "setting": "10 ppm uncoupling agent", "value": "18%-23%"}, {"measurement": "uncoupling percentage relative to the control", "setting": "20 ppm uncoupling agent", "value": 18, "unit": "%"}]}, {"smiles": "OCC(CO)(CO)CO", "note": "[Pentaerythritol, pentaerythritol]", "values": [{"measurement": "uncoupling percentage relative to the control", "setting": "0.5 ppm uncoupling agent", "value": 2, "unit": "%"}, {"measurement": "uncoupling percentage relative to the control", "setting": "1 ppm uncoupling agent", "value": 8, "unit": "%"}, {"measurement": "uncoupling percentage relative to the control", "setting": "3 ppm uncoupling agent", "value": 19, "unit": "%"}, {"measurement": "uncoupling percentage relative to the control", "setting": "20 ppm uncoupling agent", "value": 22, "unit": "%"}, {"measurement": "uncoupling factor", "setting": "concentration range between 2 and 20 ppm, summary drawn from Table 1", "value": "~20", "unit": "%"}]}, {"smiles": "C[N+](C)(C)CC(=O)[O-]", "note": "[Glycine betaine, glycine betaine]", "values": [{"measurement": "uncoupling percentage relative to the control", "setting": "0.1 ppm uncoupling agent", "value": 5, "unit": "%"}, {"measurement": "uncoupling percentage relative to the control", "setting": "0.5 ppm uncoupling agent", "value": 18, "unit": "%"}, {"measurement": "uncoupling percentage relative to the control", "setting": "1 ppm uncoupling agent", "value": 0, "unit": "%"}, {"measurement": "uncoupling percentage relative to the control", "setting": "2 ppm uncoupling agent", "value": "20%-26%"}, {"measurement": "uncoupling percentage relative to the control", "setting": "3 ppm uncoupling agent", "value": "24%-25%"}, {"measurement": "uncoupling percentage relative to the control", "setting": "8 ppm uncoupling agent", "value": "20%-26%"}, {"measurement": "uncoupling percentage relative to the control", "setting": "10 ppm uncoupling agent", "value": "12-20%"}]}]}
